Results from patent EP4775580A1, “COMPOUND, PHARMACEUTICAL COMPOSITION COMPRISING SAME, AND USE THEREOF” (Euregen Biopharma Co., Ltd., priority 2023, dated 2025).
Where two headings read alike, the source gives them in different places.

Experiments:
[1] = tested on: MV-4-11 cells; test: Antiproliferative activity against MV-4-11 cells (CTG method, 72 h); format: cell-based; settings: Homo sapiens, MV4-11, 72 hours incubation, CellTiter-Glo
From the text: • 1. Experimental Principle: MV-4-11 is a human leukemia cell line harboring MLL translocation and expressing the MLL fusion protein MLL-AF4. […] Experimental Materials: CellTiter-Glo was purchased from Promega (Cat. #G7571); IMDM medium was purchased from Gibco (Cat. #12440061); fetal bovine serum was purchased from Excell (Cat. #FND500); dimethyl sulfoxide (DMSO) was purchased from Sigma (Cat. #D2650); 384-well cell culture plates were purchased from Corning (Cat. #3756); automated cell counter was obtained from Life Technologies (Model: Countess II); microplate reader was obtained from PerkinElmer (Model: EnVision Multilabel Reader). • 3. Experimental Methods: Cells in logarithmic growth phase were resuspended in growth medium (IMDM + 10% FBS) and diluted to the target density (50,000/mL). The cell suspension was seeded into 384-well plates at 50 µL per well and incubated overnight at 37°C in a 5% CO2 incubator.
Test compounds were dissolved in DMSO to prepare 10 mM stock solutions. The stock solutions were first diluted to 2 mmol/L with DMSO, followed by 3-fold serial dilutions to generate 10 concentrations. From each concentration, 5.5 µL was diluted with 94.5 µL growth medium. The diluted solutions were then added to the 384-well plates containing seeded cells at 5 µL per well.
Cells treated with test compounds were incubated at 37°C in a 5% CO2 incubator for 72 hours. The 384-well plates were equilibrated at room temperature, and 15 µL of CellTiter-Glo reagent was added to each well. The plates were mixed on a vortex mixer for 2 minutes and incubated at room temperature for 60 minutes. Luminescence values were read using the EnVision Multilabel Reader, and IC50 values were calculated using GraphPad Prism 5.0 software.

[2] = Pharmacokinetics in rats after single IV and PO administration (LC-MS/MS); format: in vivo, male SD rats; settings: SD rats, comparative compounds; for PO F: PO 10 mg/kg vs IV 1 mg/kg according to Table 3; for AUC(0-t) / clearance / Cmax / Vd / half-life: male, rat, plasma; for clearance: read-out: IV CL; for Vd: read-out: IV Vss
Protocol: • 1. Objective: This study aimed to characterize the pharmacokinetic properties of selected compounds from the examples of the present invention in SD rats following single intravenous (IV) injection and oral (PO) administration using LC-MS/MS methodology. • 2. Experimental Materials: Test compounds were prepared according to the examples of the present invention; male SD rats were obtained from the Laboratory Animal Department of Shanghai Institute of Planned Parenthood Research (License No. SCXK(Shanghai)2018-0006) or Shanghai Jihui Laboratory Animal Breeding Co., Ltd. (License No. SCXK(Shanghai)2022-0009). • 3. Experimental Methods: Preparation of 0.5% methylcellulose: 5 g of methylcellulose was weighed and dissolved in 1000 mL of purified water. Preparation of 0.5% methylcellulose (pH = 5.03): 5 g of methylcellulose was weighed and dissolved in 1000 mL of purified water, and the pH was adjusted to 5.03 with 100 mM citric acid.
Preparation of oral formulations: The required amount of test compound was weighed and dissolved in 0.5% methylcellulose solution or 0.5% methylcellulose (pH = 5.03) to obtain a suspension or solution at 1 or 3 mg/mL.
Preparation of intravenous injection formulations: The required amount of test compound (EB229, EB300, EB341, EB342) was weighed and dissolved in 0.5 mL dimethyl sulfoxide to prepare a 4 mg/mL solution. To 0.25 mL of this solution, 0.5 mL of polyethylene glycol 15-hydroxystearate (Solutol) and 4.25 mL of normal saline were added to obtain a 0.2 mg/mL solution. For EB834, 6 mg was weighed and dissolved in 0.1 mL dimethyl sulfoxide, followed by addition of 0.2 mL polyethylene glycol 15-hydroxystearate (Solutol) and 1.7 mL normal saline to obtain a 3 mg/mL solution.
Dosing: Male SD rats were fasted overnight prior to oral (PO) administration; fasting was not required for the single intravenous (IV) injection group. Food was provided 4 hours post-dosing.
Sample Collection: Blood was collected from the jugular vein or other suitable veins, with 0.2 mL collected at each time point. Samples were placed in tubes containing dipotassium ethylenediaminetetraacetate and kept on ice prior to centrifugation. Within 1 hour of blood collection, samples were centrifuged at 6800 × g for 6 minutes at 2-8°C and stored at -80°C.

[3] = tested on: MV-4-11 cells; test: Antiproliferative activity, CellTiter-Glo, 7 days (Test Example 2), MV-4-11; format: cell-based; settings: Homo sapiens, MV4-11, 168 h, 7 days incubation
From the text: (§1) [0134] 1. Experimental Principle: MV-4-11, Molm-13, and OCI-AML-3 cells are human hematologic tumor cell lines harboring the Menin-MLL fusion. HL-60 is a wild-type human hematologic tumor cell line without Menin-MLL fusion. […] 2. Experimental Materials: MV-4-11, Molm-13, OCI-AML-3, and HL-60 cells were all purchased from Cobioer; CellTiter-Glo® was purchased from Promega (Cat. #G7571); RPMI-1640 was purchased from Viva Cell (Cat. #C3010-0500); IMDM was purchased from Viva Cell (Cat. #C3040-0500); fetal bovine serum (FBS) was purchased from Biosera (Cat. #FB-1058/500); penicillin-streptomycin was purchased from BasalMedia (Cat. #S110JV); 0.25% Trypsin-EDTA was purchased from BasalMedia (Cat. #S310KJ); dimethyl sulfoxide (DMSO) was purchased from Sinopharm (Cat. #30072418); 96-well plates were purchased from Corning (Cat. #3610); incubator was obtained from PHCbi (Model: MCO-18AC); inverted microscope was obtained from Mingmei (Cat. #MI52-0); automated cell counter was obtained from BodBoge (Model: JSY-SC-031N); microplate reader was obtained from PerkinElmer (Model: Envision); data processing software: GraphPad Prism 8.0. 3. Experimental Methods: Four cell lines in logarithmic growth phase were resuspended in their respective growth media (MV-4-11: IMDM + 20% FBS; Molm-13: RPMI-1640 + 20% FBS; OCI-AML-3: RPMI-1640 + 20% FBS; HL-60: RPMI-1640 + 10% FBS) and diluted to target densities (12,500, 6,250, 12,500, and 12,500/mL, respectively). The cell suspensions were seeded into 96-well plates at 80 µL per well and incubated overnight at 37°C in a 5% CO2 incubator. Culture medium served as the background control. Test compounds were dissolved in DMSO to prepare 10 mmol/L stock solutions. The stock solutions were first diluted to 2 mmol/L with DMSO, followed by 4-fold serial dilutions to generate 10 concentrations. From each concentration, 2 µL was diluted with 78 µL growth medium. […] After incubation at room temperature for 10 minutes, luminescence values were read using the EnVision microplate reader, and IC50 values were calculated using GraphPad Prism 8.0 software. […]

[4] = tested on: HL-60 cells; test: Antiproliferative activity, CellTiter-Glo, 7 days (Test Example 2), HL-60; format: cell-based; settings: Homo sapiens, 168 h, HL-60 cells (no Menin-MLL fusion), 7 days incubation
From the text: as §1

[5] = IV, dose 1 mg/kg according to Table 3, read-out: IV AUC(0-t)
[6] = IV, dose 1 mg/kg according to Table 3
[7] = IV, dose 1 mg/kg according to Table 3, read-out: IV Cmax
[8] = IV, dose 1 mg/kg according to Table 3, read-out: IV t1/2 (converted)
[9] = PO, dose 10 mg/kg in 0.5% MC according to Table 3, read-out: PO AUC(0-t)
[10] = PO, dose 10 mg/kg in 0.5% MC according to Table 3, read-out: PO Cmax
[11] = PO, dose 10 mg/kg in 0.5% MC according to Table 3, read-out: PO t1/2 (converted)

| SMILES | IC50 [1] | PO F [2] | AUC(0-t) [2, 5] | clearance [2, 6] | Cmax [2, 7] | Vd [2, 6] | half-life [2, 8] | AUC(0-t) [2, 9] | Cmax [2, 10] | half-life [2, 11] | IC50 [3] | IC50 [4] |
| --- | --- | --- | --- | --- | --- | --- | --- | --- | --- | --- | --- | --- |
| CCN(C(=O)c1cc(F)ccc1N1CCN(C2CCN(Cc3ccc4c(cc(C#N)n4C[C@@H]4CCNC4)c3C)CC2)c2ncncc21)C(C)C [Comparative Comp. 8] |  | 13.85% | 85.7 ng·h/mL | 185 mL/min/kg | 271 ng/mL | 9.61 L/kg | 2.06 h | 119 ng·h/mL | 41.9 ng/mL | 1.8 h |  |  |
| CCN(C(=O)c1cc(F)ccc1N1CCN(C2CCN(Cc3ccc4c(cc(C#N)n4CC4COC4)c3C)CC2)c2ncncc21)C(C)C [Comparative Comp. 10] |  | 49.68% | 16.9 ng·h/mL | 947 mL/min/kg | 16.2 ng/mL | 59.4 L/kg | 0.82 h | 83.8 ng·h/mL | 33.3 ng/mL | 1.26 h |  |  |
| CNc1nc(NC2CCN(Cc3ccc4c(cc(C#N)n4C[C@H](C)N4CCN(S(C)(=O)=O)CC4)c3C)CC2)c2cc(CC(F)(F)F)sc2n1 [KO539] |  |  |  |  |  |  |  |  |  |  | 14.4 nM | 2050 nM |
| CCN(C(=O)c1cc(F)ccc1N1CCN(C2CCN(C[C@H]3CC[C@H](NS(C)(=O)=O)CC3)C2)c2ncncc21)C(C)C (stereo partly shown) [Comparative Compound 1] | 293 nM |  |  |  |  |  |  |  |  |  |  |  |

The remaining lines, values ahead:

| IC50 [1] | PO F [2] | AUC(0-t) [2, 5] | clearance [2, 6] | Cmax [2, 7] | Vd [2, 6] | half-life [2, 8] | AUC(0-t) [2, 9] | Cmax [2, 10] | half-life [2, 11] | IC50 [3] | IC50 [4] | SMILES |
| --- | --- | --- | --- | --- | --- | --- | --- | --- | --- | --- | --- | --- |
| 800 nM |  |  |  |  |  |  |  |  |  |  |  | CCN(C(=O)c1cc(F)ccc1N1CCN(C2CCN(Cc3ccc4[nH]c(C#N)cc4c3C)C2)c2ncncc21)C(C)C (stereo not shown) [Comparative Compound 2] |
|  | 3.7% | 264 ng·h/mL | 62.1 mL/min/kg | 152 ng/mL | 6.62 L/kg | 1.55 h | 119 ng·h/mL | 27 ng/mL | 2.29 h |  |  | CCN(C(=O)c1cc(F)ccc1N1CCN(C2CCN(Cc3ccc4[nH]c(C#N)cc4c3C)CC2)c2ncncc21)C(C)C [Comparative Comp. 7] |
|  | 13.50% | 169 ng·h/mL | 92.4 mL/min/kg | 376 ng/mL | 30.6 L/kg | 5.98 h | 228 ng·h/mL | 101 ng/mL | 5.12 h |  |  | CCN(C(=O)c1cc(F)ccc1N1CCN(C2CCN(Cc3ccc4c(cc(C#N)n4CC4CNC4)c3C)CC2)c2ncncc21)C(C)C [Comparative Comp. 9] |
